According to patent US11498929B2, “Chromenopyrimidine derivatives as phosphatidylinsitol phosphate kinase inhibitors” (Hibercell, Inc., priority 2019, dated 2022):

Tests used:
[1] = biological target: T1, PIP4K2A (Homo sapiens, UniProt P48426); assay: Kinase Assay - PIP4K2 A (inhibition of PIP4K2 A kinase assay); type: biochemical; conditions: compounds listed under IC50 bin headings
T1 construct: GST; made in house; host or cells: E. coli
T1 sequence (P48426 1-406): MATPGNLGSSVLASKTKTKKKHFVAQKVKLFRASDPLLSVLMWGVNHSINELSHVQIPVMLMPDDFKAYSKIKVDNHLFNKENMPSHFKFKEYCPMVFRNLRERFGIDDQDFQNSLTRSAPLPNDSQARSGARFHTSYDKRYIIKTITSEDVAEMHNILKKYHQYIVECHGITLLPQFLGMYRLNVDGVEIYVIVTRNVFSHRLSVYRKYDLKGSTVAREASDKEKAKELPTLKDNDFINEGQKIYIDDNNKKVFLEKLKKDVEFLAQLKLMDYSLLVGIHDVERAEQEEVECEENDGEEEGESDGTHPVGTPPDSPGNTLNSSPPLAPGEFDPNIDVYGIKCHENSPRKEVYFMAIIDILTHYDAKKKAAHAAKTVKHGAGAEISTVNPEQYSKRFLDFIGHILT
Procedure: Dilution series of the compounds were prepared in DMSO at 100 times the final assay concentration (n1=n0/3 in 10 points). The compounds were further diluted to three times the assay concentration in assay buffer (20 mM MOPS pH 7.2, 25 mM magnesium chloride, 0.005% Tween 20). 6 μL of the diluted compounds were added to a 384 well assay plate followed by 9 μL of a mix consisting of 4 nM PIP4K2A (full length protein, SignalChem) and 100 μM PI(5)P diC8 (Tebu-Bio). Enzyme and compounds were pre-incubated at room temperature for 15 minutes.
Then 3 μL of a solution containing 60 μM ATP (Promega) in assay buffer was added to the wells containing compound and enzyme and mixing was performed by pipetting several times. The reaction was incubated at room temperature for 1 h. Then 18 μL of ADP-Glo™ Reagent (Promega) was added to stop the kinase reaction and deplete the unconsumed ATP, mixing was performed by pipetting several times. The plate was incubated at room temperature for 40 minutes before addition of 36 μL of Kinase Detection Reagent (Promega) to convert ADP to ATP and introduce luciferase and luciferin to detect ATP. The reaction was incubated at room temperature for 40 minutes before the luminescence was measured in a in a Victor 3V 1420 multilabel counter (Perkin Elmer).
Percent inhibition of the compounds as compared to dimethyl sulfoxide treated control samples was calculated. Compound concentration versus percent inhibition were fitted to generate IC50 values. […]

[2] = biological target: T2, PIP4K2 B (GST-tagged PIP4KtypeIIB) (Homo sapiens, UniProt P78356); assay: Kinase Assay - PIP4K2 B (inhibition of PIP4K2 B kinase assay); type: biochemical; conditions: compounds listed under IC50 bin headings
T2 construct: GST; made in house; host or cells: E. coli
T2 sequence (P78356 1-416): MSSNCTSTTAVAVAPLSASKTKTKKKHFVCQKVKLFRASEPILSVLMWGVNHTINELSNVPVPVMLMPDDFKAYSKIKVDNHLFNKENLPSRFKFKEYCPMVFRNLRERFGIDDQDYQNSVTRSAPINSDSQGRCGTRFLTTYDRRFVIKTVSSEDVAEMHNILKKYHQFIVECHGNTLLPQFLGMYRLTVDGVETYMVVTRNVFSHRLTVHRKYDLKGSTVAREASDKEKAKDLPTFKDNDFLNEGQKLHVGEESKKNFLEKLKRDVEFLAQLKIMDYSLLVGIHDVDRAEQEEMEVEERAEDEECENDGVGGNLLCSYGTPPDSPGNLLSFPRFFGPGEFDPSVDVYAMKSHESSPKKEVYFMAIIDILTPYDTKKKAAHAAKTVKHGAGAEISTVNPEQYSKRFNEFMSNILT
Excerpt: GST tagged PIP4KtypeIIA and B enzymes were overexpressed in E. Coli and purified to >80% homogeneity. Phosphatidyl inositol-5-phosphate (PI5P, Cat. #850152, Avanti Polar Lipids Inc.) was used as the lipid substrate and phosphatidyl ethanolamine (DOPE 18:1, Cat. #850725, Avanti Polar Lipids Inc.) was used as the carrier lipid for assays. Ultrapure ATP and GTP was purchased from Bellbrooke Labs. ADP Glo reagents were obtained from Promega. Transcreener FI reagent was obtained from Bellbrooke labs.
GST-tagged PIP4KtypeIIB (3.4 uL, 2.77 mg/mL) was diluted to 5 mL using HNE buffer to yield 5× enzyme stock (25 nM)
Lipid Preparation: In a 10 mL pyrex glass vial, 1 ug of PI5P and 1 ug of DOPE were suspended in 2.5 mL of HEPES buffer mix and 2.5 mL of H:E buffer. The contents were mixed and sonicated for 3 min to yield a translucent lipid stock.
Compound Preparation: Compounds were stored as 5 mM stocks in neat DMSO as room temperature in glass vials. 5 mM stocks were diluted to 2 mM and then serially diluted (3×) in neat DMSO in 96 well polypropylene plates. From the serially diluted stocks, 3 uL was delivered into 250 uL of 25% DMSO (in water) to generate 5× compound stocks. Typically, the highest compound conc. was 24 uM.
The assay volume was kept at 25 uL. To each well of the reaction plate, 10 uL of lipid stock (1:1 ratio PI5P:DOPE) was delivered. This was followed by the addition of 5 uL of compound in 25% DMSO. Then, to each well, 5 uL of 25 nM (5×) typeIIB enzyme was delivered. The contents were mixed well and incubated for 1 h at 27 C. After 1 h, reaction was initiated by adding 5 uL of 500 uM GTP and the contents were mixed well with a multi-channel pipetteman. The final concentration of the reagents are as follows: 50 mM HEPES, pH 7.3, 10 mM MgCl2, 20 mM NaCl, 0.01% v/v triton-X100, 5% DMSO, 100 uM GTP, 80 uM (2 ug) PI5P, 2 ug DOPE, and 5 nM PIP4KIIB Typically, the highest conc. of compounds was 4.8 uM and the lowest conc. was 0.
After 2 h, the reaction was quenched by adding 25 uL of transcreener FI reagent. The contents were incubated at RT for 1 h and the Fluorescence (Ex:584 Em: 623) was read using Molecular Devices Paradigm plate reader. […] The blanks were averaged and subtracted from all other wells. Using a calibration curve, RFU was converted to uM GDP (product). IC50 was calculated by plotting the residual activity (expressed as % No inhibitor control) vs. log [Inh. conc.]

[3] = tested on: MOLM-16; assay: MOLM-16 EC50 assay; type: cell-based; conditions: MOLM16

Row | SMILES | IC50 [1] | IC50 [2] | EC50 [3]
1 | CC(=O)OC1(C(=O)N2CCOc3ncc(Nc4ncc5c(n4)C(C)(C)Oc4cc(-n6nncc6C)ccc4-5)cc32)CC1 [Compound 16, 1-(7-{[5,5-dimethyl-8-(5-methyl-1H-1,2,3-triazol-1-yl)-5H-chromeno[3,4-d]pyrimidin-3-yl]amino}-1H,2H,3H-pyrido[2,3-b][1,4]oxazine-1-carbonyl)cyclopropyl acetate] | ≤ 1 nM | 1 to 10 nM | > 1000 nM
2 | Cc1cnnn1-c1ccc2c(c1)OC(C)(C)c1nc(Nc3cnc4c(c3)N(CC3COC3)CCO4)ncc1-2 [Compound 13, 5,5-dimethyl-8-(5-methyl-1H-1,2,3-triazol-1-yl)-N-{1-[(oxetan-3-yl)methyl]-1H,2H,3H-pyrido[2,3-b][1,4]oxazin-7-yl}-5H-chromeno[3,4-d]pyrimidin-3-amine] | ≤ 1 nM | 1 to 10 nM | 100 to 1000 nM
3 | CN1CCOc2ncc(Nc3ncc4c(n3)C(C)(C)Oc3cc(N5C(=O)CCC56CC6)ccc3-4)cc21 [Compound 26, 4-[5,5-dimethyl-3-({1-methyl-1H,2H,3H-pyrido[2,3-b][1,4]oxazin-7-yl}amino)-5H-chromeno[3,4-d]pyrimidin-8-yl]-4-azaspiro[2.4]heptan-5-one] | 1 to 10 nM | 1 to 10 nM | 100 to 1000 nM
4 | CC(=O)OC(C)(C)C(=O)N1CCOc2ncc(Nc3ncc4c(n3)C(C)(C)Oc3cc(-c5nocc5C)ccc3-4)cc21 [Compound 29, 1-(7-{[5,5-dimethyl-8-(4-methyl-1,2-oxazol-3-yl)-5H-chromeno[3,4-d]pyrimidin-3-yl]amino}-1H,2H,3H-pyrido[2,3-b][1,4]oxazin-1-yl)-2-methyl-1-oxopropan-2-yl acetate] | 1 to 10 nM | 10 to 100 nM | > 1000 nM
5 | Cc1cnnn1-c1ccc2c(c1)OC(C)(C)c1nc(Nc3cncc(CNCCS(C)(=O)=O)c3)ncc1-2 [Compound 14, N-[5,5-dimethyl-8-(5-methyl-1H-1,2,3-triazol-1-yl)-5H-chromeno[3,4-d]pyrimidin-3-yl]-5-{[(2-methanesulfonylethyl)amino]methyl}pyridin-3-amine] | ≤ 1 nM | 1 to 10 nM | > 1000 nM
6 | Cc1cnnn1-c1ccc2c(c1)OC(C)(C)c1nc(Nc3cnc4c(c3)N(C(=O)N(C)C)CCO4)ncc1-2 [Compound 5, 7-{[5,5-dimethyl-8-(5-methyl-1H-1,2,3-triazol-1-yl)-5H-chromeno[3,4-d]pyrimidin-3-yl]amino}-N,N-dimethyl-1H,2H,3H-pyrido[2,3-b][1,4]oxazine-1-carboxamide] | ≤ 1 nM | 1 to 10 nM | 100 to 1000 nM
7 | CN1CCN(CC(=O)N(C)c2cncc(Nc3ncc4c(n3)C(C)(C)Oc3cc(N5CCCC5=O)ccc3-4)c2)CC1 [Compound 35, N-(5-{[5,5-dimethyl-8-(2-oxopyrrolidin-1-yl)-5H-chromeno[3,4-d]pyrimidin-3-yl]amino}pyridin-3-yl)-N-methyl-2-(4-methylpiperazin-1-yl)acetamide] | 100 to 1000 nM | > 1000 nM | 100 to 1000 nM
